Experimental data published in US5677293A, “16 unsaturated C17 heterocyclic steroids useful as steroid C17-20 lyase inhibitors” (Merrell Pharmaceuticals Inc., priority 1996, dated 1997).

Legend:
Format in all cases: biochemical
[1] = biological target: T1, Cynomolgus Monkey Testicular C17-20 Lyase (Macaca fascicularis, UniProt Q2XVA1); test: Screen for time-dependent inhibition / inhibition of cynomolgus monkey testicular C17-20 lyase (microsomal preparation)
T1 construct: Microsomes are isolated from human or cynomolgus monkey tissue; from tissue; host or cells: cynomolgus monkey testis, microsomes
T1 sequence (Q2XVA1 1-508): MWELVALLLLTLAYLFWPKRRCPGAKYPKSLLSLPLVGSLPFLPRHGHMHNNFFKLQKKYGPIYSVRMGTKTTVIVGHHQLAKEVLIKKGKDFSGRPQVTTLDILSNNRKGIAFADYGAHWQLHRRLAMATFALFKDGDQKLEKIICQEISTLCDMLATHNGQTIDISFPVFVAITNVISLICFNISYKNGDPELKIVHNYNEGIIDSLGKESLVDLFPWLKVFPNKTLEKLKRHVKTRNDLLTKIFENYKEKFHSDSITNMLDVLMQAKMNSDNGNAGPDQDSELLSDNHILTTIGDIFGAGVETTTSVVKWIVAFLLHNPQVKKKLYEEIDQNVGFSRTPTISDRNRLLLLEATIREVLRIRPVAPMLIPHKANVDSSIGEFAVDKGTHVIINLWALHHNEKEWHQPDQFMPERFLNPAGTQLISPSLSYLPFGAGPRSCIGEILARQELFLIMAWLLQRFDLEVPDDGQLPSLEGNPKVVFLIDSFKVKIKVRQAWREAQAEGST
Experimental: (§1) Utilizing an in vitro assay, the activity of the compounds of formulas (I) and (II) as inhibitors of steroid C17-20 lyase are established using microsomal preparations of the enzyme from human or cynomolgus monkey testicular tissue. Human testes were acquired from therapeutic orchiectomies. Microsomes are isolated from human or cynomolgus monkey tissue. The compound to be tested is dissolved in dimethyl sulfoxide and diluted in 0.05M potassium phosphate buffer, pH 7.4, to give the desired concentrations of test compound. Assays contain an NADPH regenerating system comprised of 1 mM NADPH, 5 mM glucose-6-phosphate, 1 IU/mL glucose-6-phosphate dehydrogenase and microsomal protein in a total volume of 0.2 mL. Control assays contain all components, including dimethyl sulfoxide, but no test compound. All assays are performed in duplicate. For determination of time dependent C17-20 lyase inactivation, the test compound is incubated with 20 to 62 μg/mL microsomal protein, buffer and the NADPH regenerating system described above at 34° C. for 0 or 40 minutes. Aliquots of 180 μL are then removed and assayed for enzyme activity by addition to 7-^3 H-17α-hydroxypregnenolone (11.2 mCi/mmole; 0.2 μCi per assay) plus unlabeled 17α-hydroxypregnenolone to give a total substrate concentration of 1.0 μM or 0.3 μM per assay and are subsequently incubated at 34° C. for 6 minutes. For determination of reversible inhibition by the test compound, the reaction is initiated by the addition of substrate, 7-^3 H-17α-hydroxypregnenolone (11.2 mCi/mmole; 0.20 μCi per assay) plus unlabeled 17α-hydroxypregnenolone to yield a final concentration of 0.3 μM (=Km), to the other assay components. The complete assay is incubated at 34° C. for 6 minutes. Each assay is terminated by addition of 5 mL of chloroform/methanol (2:1). Carrier steroids representing substrates and products (17α-hydroxypregnenolone, dehydroepiandrosterone, and androst-5-ene-3β,17β-diol and 0.8 mL of distilled, deionized water are also added at this time. The steroids are extracted by the method of Moore and Wilson (Methods in Enzymol., eds. O'Malley, B. W. and Hardman, J. G. 36, 1975, pp.466-474). The organic phase containing the steroids is evaporated using nitrogen gas, the residue is dissolved in 18% tetrahydrofuran (v/v) in hexane and the steroids are separated by HPLC on an Si60 (5 μm) column (250×4 mm) using a gradient of 18-22% tetrahydrofuran (v/v) in hexane. Radioactivity in the steroid peaks is measured using a Radiometric Model HS or Model A515 Flo-One detector.
(§2) The enzyme activity for each assay is calculated from the percent conversion of substrate to products, and the results are expressed as percent inhibition of control.

[2] = biological target: T1, Cynomolgus Monkey Testicular C17-20 Lyase; test: Screen for inhibition of cynomolgus monkey testicular C17-20 lyase by compounds of formula (II)
Experimental: as §1, §2

[3] = biological target: T2, Human Testicular C17-20 Lyase (Homo sapiens, UniProt P05093); test: Screen for time-dependent inhibition of human testicular C17-20 lyase (microsomal preparation)
T2 construct: Microsomes are isolated from human or cynomolgus monkey tissue; from tissue; host or cells: human testes from therapeutic orchiectomies, microsomes
T2 sequence (P05093 1-508): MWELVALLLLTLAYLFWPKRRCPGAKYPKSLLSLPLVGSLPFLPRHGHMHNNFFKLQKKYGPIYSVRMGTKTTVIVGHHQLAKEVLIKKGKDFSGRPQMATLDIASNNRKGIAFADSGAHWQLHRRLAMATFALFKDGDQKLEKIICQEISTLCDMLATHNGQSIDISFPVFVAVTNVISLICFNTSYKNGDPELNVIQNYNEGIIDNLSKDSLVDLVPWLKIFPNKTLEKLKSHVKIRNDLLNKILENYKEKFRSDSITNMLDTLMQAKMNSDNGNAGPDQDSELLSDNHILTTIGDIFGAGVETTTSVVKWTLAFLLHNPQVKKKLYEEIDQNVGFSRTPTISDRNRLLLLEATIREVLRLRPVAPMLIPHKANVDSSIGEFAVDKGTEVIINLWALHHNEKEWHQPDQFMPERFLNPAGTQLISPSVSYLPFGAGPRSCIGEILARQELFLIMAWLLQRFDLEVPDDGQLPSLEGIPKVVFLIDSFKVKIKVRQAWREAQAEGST
Experimental: as §1, §2

Work on `C[C@]12CCC(=O)CC1=CC[C@@H]1[C@@H]2CC[C@]2(C)C(c3csc(N)n3)=CC[C@@H]12` [17-(2-amino-4-thiazolyl)-androsta-5,16-dien-3-one] yielded an inhibition at 1 µM ([1]; preincubation 0 min) of 66% and an inhibition at 10 µM ([1]; preincubation 0 min) of 92%.

For `C[C@]12CC[C@H](O)CC1=CC[C@@H]1[C@@H]2CC[C@]2(C)C(c3ccco3)=CC[C@@H]12` [17-(2-furanyl)androsta-5,16-dien-3β-ol, (3β)-17-(2-furanyl)-androsta-5,16-dien-3-ol], the inhibition at 0.1 µM [2] was 10% and the inhibition at 1 µM [2] was 72%.

`C[C@]12CC[C@H](O)CC1=CC[C@@H]1[C@@H]2CC[C@]2(C)C(c3cccs3)=CC[C@@H]12` [17-(2-thienyl)androsta-5,16-dien-3β-ol, (3β)-17-(2-thienyl)-androsta-5,16-dien-3-ol] gave an inhibition at 0.1 µM [2] of 43% and an inhibition at 1 µM [2] of 75%.

In the case of `C[C@]12CC[C@H](O)CC1=CC[C@@H]1[C@@H]2CC[C@]2(C)C(c3ccoc3)=CC[C@@H]12` [17-(3-furanyl)androsta-5,16-dien-3β-ol, (3β)-17-(3-furanyl)-androsta-5,16-dien-3-ol], the inhibition at 0.1 µM [2] is reported as 53% and the inhibition at 1 µM [2] is reported as 91%.

`C[C@]12CC[C@H](O)CC1=CC[C@@H]1[C@@H]2CC[C@]2(C)C(c3ccsc3)=CC[C@@H]12` [17-(3-thienyl)androsta-5,16-dien-3β-ol, (3β)-17-(3-thienyl)-androsta-5,16-dien-3-ol] gave an inhibition at 0.1 µM [2] of 21% and an inhibition at 1 µM [2] of 42%.

`C[C@]12CC[C@H](O)CC1=CC[C@@H]1[C@@H]2CC[C@]2(C)C(c3csc(N)n3)=CC[C@@H]12` [(3β)-17-(2-amino-4-thiazolyl)-androsta-5,16-dien-3-ol.HBr.CH3 CH2 OH] was tested, and the inhibition at 1 µM ([3]; preincubation 0 min) was 44%, the inhibition at 10 µM ([3]; preincubation 0 min) was 62% and the inhibition at 1 µM ([3]; preincubation 40 min) was 32%. It also gave an inhibition at 10 µM ([3]; preincubation 40 min) of 29%.

With `CNc1nc(C2=CC[C@H]3[C@@H]4CC=C5C[C@@H](O)CC[C@]5(C)[C@H]4CC[C@]23C)cs1` [(3β)-17-[2-(methylamino)-4-thiazolyl]-androsta-5,16-dien-3-ol.HBr] the inhibition at 1 µM ([1]; preincubation 0 min) was 28%, the inhibition at 10 µM ([1]; preincubation 0 min) was 40% and the inhibition at 1 µM ([1]; preincubation 40 min) was 26%. It also gave an inhibition at 10 µM ([1]; preincubation 40 min) of 80%.
